Results on 5 compounds are retold here after US10596166B2, “Combination composition comprising huperzine” (priority 2015, dated 2020).

The test system of assay [1] is primary cortical neurons injured by glutamate. Description: glutamate toxicity on primary cortical neurons (neuron survival, neurite network). The assay is classed as cell-based, rat. As to conditions: glutamate 40 μM, 20 min. The protocol:
Rat cortical neurons were cultured as described by Singer et al., 1999 [J. Neuroscience 19(7), 2455-2463] and Callizot et al. 2013 [J. Neurosc. Res. 91(5), 706-716].
Briefly, pregnant females (Wistar; JanvierLabs, St Berthevin, France) at 15 days of gestation were killed by cervical dislocation. Foetuses were collected and immediately placed in ice-cold L15 Leibovitz medium (Pan Biotech, Aidenbach, Germany, Batch: 4120413) with a 2% penicillin (10,000 U/ml) and streptomycin (10 mg/ml) solution (PS; Pan Biotech, Aidenbach, Germany) and 1% bovine serum albumin (BSA; Pan Biotech, Aidenbach, Germany). Cortex was treated for 20 min at 37° C. with a trypsin-EDTA (Pan Biotech, Aidenbach, Germany) solution at a final concentration of 0.05% trypsin and 0.02% EDTA. The dissociation was stopped by addition of Dulbecco's modified Eagle's medium (DMEM) with 4.5 g/liter of glucose (Pan Biotech, Aidenbach, Germany), containing DNAse I grade II (final concentration 0.5 mg/ml; Pan Biotech, Germany) and 10% fetal calf serum (FCS; Invitrogen, Cergy Pointoise, France). Cells were mechanically dissociated by three forced passages through the tip of a 10-ml pipette. Cells were then centrifuged at 515 g for 10 min at 4° C. The supernatant was discarded, and the pellet was resuspended in a defined culture medium consisting of Neurobasal medium (Invitrogen, Cergy Pointoise, France) with a 2% solution of B27 supplement (Invitrogen, Cergy Pointoise, France), 2 mmol/liter of L-glutamine (Pan Biotech, Aidenbach, Germany), 2% of PS solution, and 10 ng/ml of brain-derived neurotrophic factor (BDNF; Pan Biotech, Aidenbach, Germany). Viable cells were counted in a Neubauer cytometer, using the trypan blue exclusion test. The cells were seeded at a density of 30,000 per well in 96-well plates precoated with poly-L-lysine (Corning Biocoat, Tewksbury, USA) and were cultured at 37° C. in an air (95%)-CO2 (5%) incubator. The medium was changed every 2 days.
On day 13, the cultures were exposed for 20 minutes to glutamate 40 μM in the absence or presence of Huperzia serrata extracts. Then the cells were washed out and new fresh medium containing or not Huperzia serrata extracts was added for another 48 hours.
The cells were then fixed by a cold solution ethanol/acetic acid (95:5 v/v) for 5 minutes at −20° C. After permeabilization with 0.1% of saponin (Sigma), cells were incubated for 2 hours with mouse monoclonal antibody against microtubule-associated-protein 2 (MAP 2; Sigma) at dilution of 1/400 in PBS containing 1% foetal calf serum (Invitrogen) and 0.1% of saponin.
Neuron survival assessment: For each condition 6 wells were assessed, 20 pictures per well were taken using InCell Analyzer™ 1000 (GE Healthcare) with 20× magnification to assess cell bodies (MAP 2 staining). Analysis of picture was done using Developer software (GE Healthcare), the number of neurons per picture was recorded. A mean of neuron number of the 20 pictures was automatically calculated per well, then one data was provided per well (total of 6 raw data were provided per condition).
Neurite network length assessment: For each condition 6 wells were assessed, 20 pictures per well were taken using InCell Analyzer™ 1000 with 20× magnification (20 pictures at X20 representing ˜80% of the total well surface), to assess MAP-2 staining. Analysis of picture was done using Developer software, the total neurite length per picture was recorded. A mean neurite length of the 20 pictures was automatically calculated per well, then one data was provided per well (total of 6 raw data were provided per condition).
The protocol used in these assays is the same as described in example 1. After 13 days of neuron culture, the candidate compounds were solved in DMSO and diluted in culture medium. […]

A further assay relates to mice. As to conditions: adult and aged mice; cited from earlier work.
A further assay relates to ALS patients. As to conditions: several months; cited from earlier work.

Structures are written as SMILES.

Compound `O=C(O)c1cc(O)c(O)c(O)c1` [GA, gallic acid] returned a neuron survival in assay [1] (10 and 50 μM) of around 80%. For the same compound, in assay [1] (GA 10 pM to 50 μM), the neurite network entry is listed as “no protection”.

As to `COc1cc(/C=C/C(=O)O)cc(OC)c1O` [SA, sinapic acid], the neuron survival in assay [1] (100, 10 and 1 nM) was around 80%; in assay [1] (SA at the lowest concentrations), “inactive”. Besides, the neurite network entry in assay [1] (SA 10 pM to 50 μM) is “no protective effect”.

Regarding `CC1=C[C@H]2Cc3[nH]c(=O)ccc3[C@]3(C1)NCCC[C@H]23` [HupB, Huperzine B], in the assay on mice, the “memory retention and memory retrieval” value was “improved memory retention and memory retrieval”.

Take `O=C(O)/C=C/c1ccc(O)cc1` [pCouA, para-coumaric acid]: the neuron survival in assay [1] (100 nM and 1 μM) is around 80%. In addition, the neurite network entry in assay [1] (only 1 μM) is “protective effect”. Besides, in assay [1] (p-CouA at the lowest concentrations), the “survival and neurite network” value was “inactive”.

`Nc1nc2ccc(OC(F)(F)F)cc2s1` [Riluzole]: in the assay on ALS patients, the prolongation of survival was around 7%.
